Data as given in patent US11072581B2, “N-acyl-arylsulfonamide derivatives as aminoacyl-tRNA synthetase inhibitors” (Oxford Drug Design Limited, priority 2015, dated 2021).
Structures can show the parent of a compound that is named as a salt. Where two headings read alike, the source gives them in different places.

Columns and labels:
Type in all cases: biochemical
[1] = target: T1, EcoLRS (leucyl-tRNA synthetase from Escherichia coli) (Escherichia coli, UniProt P07813); test: aaRS aminoacylation assay (ATP consumption), EcoLRS
T1 construct: made in house; host or cells: Escherichia coli M15
T1 sequence (P07813 whole entry): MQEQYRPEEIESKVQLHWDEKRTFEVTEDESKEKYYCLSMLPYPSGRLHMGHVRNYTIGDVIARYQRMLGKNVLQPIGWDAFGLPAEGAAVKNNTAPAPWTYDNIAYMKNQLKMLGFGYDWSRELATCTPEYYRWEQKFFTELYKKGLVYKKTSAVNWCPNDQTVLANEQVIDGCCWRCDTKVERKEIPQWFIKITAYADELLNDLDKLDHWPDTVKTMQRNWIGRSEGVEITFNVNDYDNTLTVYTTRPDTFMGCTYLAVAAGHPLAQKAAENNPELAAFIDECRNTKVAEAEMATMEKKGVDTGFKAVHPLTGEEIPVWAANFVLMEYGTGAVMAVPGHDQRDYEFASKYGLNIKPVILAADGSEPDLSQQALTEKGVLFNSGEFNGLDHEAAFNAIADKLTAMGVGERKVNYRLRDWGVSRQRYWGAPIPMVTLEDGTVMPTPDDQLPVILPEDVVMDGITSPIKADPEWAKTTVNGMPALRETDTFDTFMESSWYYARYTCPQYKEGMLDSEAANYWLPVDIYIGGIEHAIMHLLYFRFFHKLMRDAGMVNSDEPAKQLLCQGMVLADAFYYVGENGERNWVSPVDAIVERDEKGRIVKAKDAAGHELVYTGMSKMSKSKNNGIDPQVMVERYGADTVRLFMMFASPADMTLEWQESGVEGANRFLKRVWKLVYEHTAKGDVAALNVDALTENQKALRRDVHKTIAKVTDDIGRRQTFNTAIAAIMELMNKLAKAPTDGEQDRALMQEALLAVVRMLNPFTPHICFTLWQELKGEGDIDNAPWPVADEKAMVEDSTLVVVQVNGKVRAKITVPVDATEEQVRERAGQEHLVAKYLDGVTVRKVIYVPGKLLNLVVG
Protocol: (§1) The compounds have been tested for antibacterial activity in vitro as aminoacyl-tRNA synthetases (aaRS) inhibitors following the following process.
(§2) Leucyl-, valyl- and isoleucyl-tRNA synthetases (LRS, VRS and IRS, respectively) from Escherichia coli (Eco) and Staphylococcus aureus (Sau).
(§3) Escherichia coli M15 cells transformed with plasmid pQE-60, or pQE-70, containing the open-reading frame sequence of one targeted aaRS were induced with 1 mM IPTG (Isopropyl β-D-1-thiogalactopyranoside) for 3 h at 37° C. Bacterial cells were harvested and lysed with 20 mM NaH2PO4 (pH 8.0), 200 mM NaCl, 10 mM imidazole and protease inhibitor cocktail (Roche). Pathogenic aaRS was purified by nickel affinity standard chromatography. Protein concentration was determined by spectrophotometry.
(§4) tRNA^Leu, tRNA^Val and tRNA^Ile from E. coli and S. aureus were transcribed in vitro for 4 h at 37° C. using T7 RNA polymerase. Transcription reaction contained 40 mM Tris-HCl (pH 8.0), 22 mM MgCl2, 1 mM spermidine, 5 mM DTT, 0.01% Triton X-100, 4 mM GTP, 4 mM ATP, 4 mM UTP, 4 mM CTP, 16 mM GMP, […] T7 RNA polymerase and 150 μg BstNI digested plasmid. Once finished, the reaction was applied on a 6% polyacrylamide-8 M urea denaturing gel to purify the transcribed tRNA and discard any impurities. Purified tRNA was quantified with Nanodrop 2000 (Thermo Scientific).
(§5) The aminoacylation reaction catalyzed by aminoacyl-tRNA synthetases (aaRS) takes place in two steps. In the first step, aaRS activates its cognate amino acid with ATP; and in the second step the activated amino acid is loaded to its corresponding tRNA. This reaction can be summarized as follows: ARS+aa+ATP=ARS-aa-AMP+PPi ARS-aa-AMP+tRNA=aa-tRNA+AMP+ARS [2] (ARS, Aminoacyl-tRNA synthetase; aa, amino acid; ARS-aa-AMP, enzyme-bound to aminoacyl-adenylate; aa-tRNA, aminoacyl-tRNA).
(§6) The activity of the pathogenic aaRSs was monitored by measuring the ATP consumption rate, since this consumption is directly proportional to the activity of the aaRS. If the tested compound, at a single point concentration of 50 μM, is inhibiting the aminoacylation reaction, there is a decrease in the ATP consumption, compared to the control reaction without compound, allowing the calculation of an inhibition ratio.
(§7) When the inhibition ratio for a given compound was above 80%, IC50 determination was performed with the same enzymatic assay (using the commercial kit Kinase RR from BioThema AB, Sweden) in the presence of serial dilutions of inhibitor. Known inhibitors of LRS, VRS or IRS were used as a positive control of the assay. The IC50 was calculated based on nonlinear regression analysis.

[2] = target: T2, EcoIRS (isoleucyl-tRNA synthetase from Escherichia coli) (Escherichia coli, UniProt P00956); test: aaRS aminoacylation assay (ATP consumption), EcoIRS; details: i.a. = inactive at a concentration below 50 uM
T2 construct: made in house; host or cells: Escherichia coli M15
T2 sequence (P00956 whole entry): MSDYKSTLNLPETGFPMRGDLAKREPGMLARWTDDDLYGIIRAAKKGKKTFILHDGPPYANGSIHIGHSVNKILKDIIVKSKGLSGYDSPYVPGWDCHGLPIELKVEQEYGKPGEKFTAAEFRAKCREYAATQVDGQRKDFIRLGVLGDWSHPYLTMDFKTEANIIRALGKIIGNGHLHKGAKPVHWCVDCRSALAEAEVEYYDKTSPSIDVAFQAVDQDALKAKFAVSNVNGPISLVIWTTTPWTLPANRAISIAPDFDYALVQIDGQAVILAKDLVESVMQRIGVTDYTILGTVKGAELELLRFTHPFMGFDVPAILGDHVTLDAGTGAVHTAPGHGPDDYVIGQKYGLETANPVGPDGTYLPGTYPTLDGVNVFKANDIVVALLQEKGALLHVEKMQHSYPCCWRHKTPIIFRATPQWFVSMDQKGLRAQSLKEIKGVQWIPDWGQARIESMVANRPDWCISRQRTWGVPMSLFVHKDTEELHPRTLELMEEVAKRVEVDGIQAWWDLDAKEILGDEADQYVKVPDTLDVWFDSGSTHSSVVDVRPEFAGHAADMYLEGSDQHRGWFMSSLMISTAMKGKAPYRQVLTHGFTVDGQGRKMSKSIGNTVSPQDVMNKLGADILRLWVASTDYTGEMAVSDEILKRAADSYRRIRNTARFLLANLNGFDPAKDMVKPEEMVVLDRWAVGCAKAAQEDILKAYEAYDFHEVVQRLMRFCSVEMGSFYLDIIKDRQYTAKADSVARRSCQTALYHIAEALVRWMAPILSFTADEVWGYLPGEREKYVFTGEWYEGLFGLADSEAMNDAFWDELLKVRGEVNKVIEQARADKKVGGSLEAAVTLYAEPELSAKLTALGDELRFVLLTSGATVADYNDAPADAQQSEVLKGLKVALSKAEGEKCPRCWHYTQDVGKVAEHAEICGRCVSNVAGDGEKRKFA
Protocol: as §1, §2, §3, §4, §5, §6, §7

[3] = target: T3, SauIRS (isoleucyl-tRNA synthetase from Staphylococcus aureus) (Staphylococcus aureus, UniProt P41972); test: aaRS aminoacylation assay (ATP consumption), SauIRS; details: i.a. = inactive at a concentration below 50 uM
T3 construct: made in house; host or cells: Escherichia coli M15
T3 sequence (P41972 1-917): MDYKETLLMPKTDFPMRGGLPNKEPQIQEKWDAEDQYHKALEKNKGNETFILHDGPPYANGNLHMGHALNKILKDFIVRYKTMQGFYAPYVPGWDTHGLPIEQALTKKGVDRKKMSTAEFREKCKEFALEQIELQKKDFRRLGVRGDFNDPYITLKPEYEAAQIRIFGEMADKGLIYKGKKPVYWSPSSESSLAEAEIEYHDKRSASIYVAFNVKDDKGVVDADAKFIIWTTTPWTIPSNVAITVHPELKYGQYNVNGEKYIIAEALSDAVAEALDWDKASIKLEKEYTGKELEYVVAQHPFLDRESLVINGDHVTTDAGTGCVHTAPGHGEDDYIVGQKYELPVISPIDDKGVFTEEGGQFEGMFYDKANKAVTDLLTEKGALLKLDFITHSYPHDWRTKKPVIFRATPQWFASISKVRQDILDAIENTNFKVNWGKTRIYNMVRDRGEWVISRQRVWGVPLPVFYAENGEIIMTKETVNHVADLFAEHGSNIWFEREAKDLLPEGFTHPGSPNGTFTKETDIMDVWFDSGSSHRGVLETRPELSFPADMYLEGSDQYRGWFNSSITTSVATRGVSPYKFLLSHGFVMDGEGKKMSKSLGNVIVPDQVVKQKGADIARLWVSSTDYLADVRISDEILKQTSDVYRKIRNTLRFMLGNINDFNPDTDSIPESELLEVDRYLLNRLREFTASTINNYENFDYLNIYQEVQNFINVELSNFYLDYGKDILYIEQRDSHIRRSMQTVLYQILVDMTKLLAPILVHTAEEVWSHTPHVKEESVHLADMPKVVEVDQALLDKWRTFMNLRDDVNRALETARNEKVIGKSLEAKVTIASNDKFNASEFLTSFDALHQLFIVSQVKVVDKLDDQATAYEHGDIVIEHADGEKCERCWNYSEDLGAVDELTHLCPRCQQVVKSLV
Protocol: as §1, §2, §3, §4, §5, §6, §7

[4] = i.a. = inactive at a concentration below 50 uM, read-out: IC50 EcoLRS
[5] = i.a. = inactive at a concentration below 50 uM

SMILES | IC50 [1] [nM] | IC50 EcoIRS [2] | IC50 SauIRS [3] | IC50 [1, 4] [nM] | IC50 EcoLRS [1, 5] | % at single point concentration (inhibition ratio), EcoLRS ([1]; @50 μM compound) [%@50]
CCCCc1ccc(S(=O)(=O)NC(=O)[C@@H](N)CC(C)C)cc1 [Compound 5.7] | 668 | i.a | i.a | – | – | –
CC(C)C[C@H](N)C(=O)NS(=O)(=O)c1cccc(-c2ccccc2)c1 [Compound 5.9] | – | i.a | i.a | 32 | – | –
CC(C)C[C@H](N)C(=O)NS(=O)(=O)c1ccc(-c2ccccc2)cc1 [Compound 5.11] | 27600 | i.a | i.a | – | – | –
CC(C)C[C@H](N)C(=O)NS(=O)(=O)c1c(C(C)C)cc(C(C)C)cc1C(C)C [Compound 5.12] | 32700 | i.a | i.a | – | – | –
CC(C)C[C@H](N)C(=O)NS(=O)(=O)c1cccc2ccccc12 [Compound 5.13] | 59 | i.a | i.a | – | – | –
CC(C)C[C@H](N)C(=O)NS(=O)(=O)c1ccc2ccccc2c1 [Compound 5.14] | – | i.a | i.a | 65 | – | –
CC[C@H](C)[C@H](N)C(=O)NS(=O)(=O)c1ccc2ccccc2c1 [Compound 5.15] | – | i.a | i.a | – | i.a | –
CC(C)C[C@H](N)C(=O)NS(=O)(=O)c1cccc2c(N(C)C)cccc12 [Compound 5.16, (S)-2-amino-N-((5-(dimethylamino)naphthalen-1-yl)sulfonyl)-4-methylpentanamide hydrochloride] | 4100 | i.a | i.a | – | – | –
COc1ccc2cc(S(=O)(=O)NC(=O)[C@@H](N)CC(C)C)ccc2c1 [Compound 5.17] | 920 | i.a | i.a | – | – | –
CC(C)C[C@H](N)C(=O)NS(=O)(=O)c1cccc2cccnc12 [Compound 5.19] | 780 | i.a | i.a | – | – | –
CC(C)C[C@H](N)C(=O)NS(=O)(=O)c1cccc2ccncc12 [Compound 5.21] | 483 | i.a | i.a | – | – | –
CC(C)C[C@H](N)C(=O)NS(=O)(=O)c1ccc(Br)c2ccncc12 [Compound 5.22, trifluoroacetate] | 2400 | i.a | i.a | – | – | –
CC(C)C[C@H](N)C(=O)NS(=O)(=O)c1cccc2cc(C(N)=O)ncc12 [Compound 5.24, 8-(N-(L-Leucyl)sulfamoyl)isoquinoline-3-carboxamide] | 11 | i.a | i.a | – | – | –
CC(C)C[C@H](N)C(=O)NS(=O)(=O)c1cccc2c1OCCC2 [Compound 5.25] | 149 | i.a | i.a | – | – | –
CC(C)C[C@H](N)C(=O)NS(=O)(=O)c1cccc2c1CNCC2 [Compound 5.26, (S)-2-amino-4-methyl-N-((1,2,3,4-tetrahydroisoquinolin-8-yl)sulfonyl) pentanamide trifluoroacetate] | 176 | i.a | i.a | – | – | –
CNc1cc(-c2cccc(S(=O)(=O)NC(=O)[C@@H](N)CC(C)C)c2)nc(N)n1 [Compound 5.27] | 51 | i.a | i.a | – | – | –
CC(C)C[C@H](N)C(=O)NS(=O)(=O)c1cccc(-c2cc(N(C)C)nc(N)n2)c1 [Compound 5.28] | 1600 | i.a | i.a | – | – | –
CSc1cc(-c2cccc(S(=O)(=O)NC(=O)[C@@H](N)CC(C)C)c2)nc(N)n1 [Compound 5.29] | 21 | i.a | i.a | – | – | –
Cc1cc(-c2cccc(S(=O)(=O)NC(=O)[C@@H](N)CC3CC3)c2)nc(N)n1 [Compound 5.30] | 14000 | i.a | i.a | – | – | –
Cc1cc(-c2cccc(S(=O)(=O)NC(=O)[C@@H](N)CC3CCC3)c2)nc(N)n1 [Compound 5.31] | 6200 | i.a | i.a | – | – | –
Cc1cc(-c2cccc(S(=O)(=O)NC(=O)[C@@H](N)C3CC3)c2)nc(N)n1 [Compound 5.33] | – | i.a | i.a | – | – | 40
Cc1cc(-c2cccc(S(=O)(=O)NC(=O)[C@@H](N)CC3CCCCC3)c2)nc(N)n1 [Compound 5.34] | – | i.a | i.a | – | i.a | –
